According to ChEMBL document CHEMBL1201862, “PubChem BioAssay data set” (2004):
Activity calls are given as the source filed them.

Key:
[1] = Counterscreen for AddAB inhibitors: absorbance-based bacterial cell-based high throughput dose response assay for inhibitors of bacterial viability. [Related pubchem assays (depositor defined):AID435030, AID449728, AID449731, AID488942, AID488955, AID488956]; type: functional
[2] = target: T1, Histone-lysine N-methyltransferase NSD2 (Homo sapiens, UniProt O96028); type: biochemical
T1 sequence (O96028 whole entry): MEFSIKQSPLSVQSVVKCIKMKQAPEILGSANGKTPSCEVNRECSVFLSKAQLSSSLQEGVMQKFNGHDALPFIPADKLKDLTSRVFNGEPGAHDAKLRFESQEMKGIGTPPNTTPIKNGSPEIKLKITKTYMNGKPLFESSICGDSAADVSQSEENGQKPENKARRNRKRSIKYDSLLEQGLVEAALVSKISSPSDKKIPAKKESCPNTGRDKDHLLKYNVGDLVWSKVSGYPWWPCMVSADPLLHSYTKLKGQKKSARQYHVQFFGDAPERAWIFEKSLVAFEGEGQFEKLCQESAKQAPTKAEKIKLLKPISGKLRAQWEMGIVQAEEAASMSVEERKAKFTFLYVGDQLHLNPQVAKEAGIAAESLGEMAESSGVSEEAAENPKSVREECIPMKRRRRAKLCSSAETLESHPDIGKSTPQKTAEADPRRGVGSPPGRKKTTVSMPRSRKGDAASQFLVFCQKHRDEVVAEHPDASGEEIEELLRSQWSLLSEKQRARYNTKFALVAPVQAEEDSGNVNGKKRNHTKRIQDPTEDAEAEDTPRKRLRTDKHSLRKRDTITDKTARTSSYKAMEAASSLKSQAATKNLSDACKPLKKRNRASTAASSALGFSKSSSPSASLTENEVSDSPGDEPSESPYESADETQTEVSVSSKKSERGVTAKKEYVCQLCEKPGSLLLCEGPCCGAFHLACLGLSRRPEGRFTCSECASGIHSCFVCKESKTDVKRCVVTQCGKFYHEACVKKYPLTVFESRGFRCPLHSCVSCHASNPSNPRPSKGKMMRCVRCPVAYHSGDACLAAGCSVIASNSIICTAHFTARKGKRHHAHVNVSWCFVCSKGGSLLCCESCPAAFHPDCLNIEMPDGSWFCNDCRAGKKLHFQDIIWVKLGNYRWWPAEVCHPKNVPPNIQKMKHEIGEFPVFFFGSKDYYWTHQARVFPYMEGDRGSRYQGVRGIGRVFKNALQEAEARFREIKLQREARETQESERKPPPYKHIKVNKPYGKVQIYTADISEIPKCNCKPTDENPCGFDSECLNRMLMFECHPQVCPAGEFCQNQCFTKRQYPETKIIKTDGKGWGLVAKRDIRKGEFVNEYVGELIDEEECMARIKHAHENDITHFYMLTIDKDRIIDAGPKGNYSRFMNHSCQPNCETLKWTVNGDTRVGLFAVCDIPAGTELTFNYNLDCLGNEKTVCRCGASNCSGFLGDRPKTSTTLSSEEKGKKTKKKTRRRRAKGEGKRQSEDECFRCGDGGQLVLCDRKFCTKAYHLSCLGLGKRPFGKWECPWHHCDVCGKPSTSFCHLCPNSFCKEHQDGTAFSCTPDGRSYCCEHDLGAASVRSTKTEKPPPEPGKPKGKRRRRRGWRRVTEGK

Structure (SMILES): CCCCC(=O)NC(c1ccccc1)c1ccc2cccnc2c1O (centres undefined)
- IC50 [1]: > 118 µM (inactive)

Structure (SMILES): O=C(N/N=C1\C/C(=N\NC(=O)c2ccncc2)c2ccccc21)c1ccncc1
- AC50 [2]: 4.72 µM (active)

Structure (SMILES): COc1ccc(-n2c3nc4ccccc4nc3c3c(=N)oc(C)nc32)cc1
- AC50 [2]: > 20 µM (inactive)

Structure (SMILES): O=C(/C=C/c1cccs1)NC(=S)NNC(=O)c1ccccc1O
- IC50 [1]: 109 µM (inactive)
